Columns and labels:
sTNFα production = assay: NB-monocyte co-culture, TNFα ELISA of supernatant; format: cell-based, human; details: 24 hours
Description: (§1) Monocytes were directly cultured with wild-type or TNF, TNFR1, TNFR2 KO NB cell lines in ULA plates for 24 hours. Activation of NF-kB in monocytes and NB was measured by flow cytometry and cytokine production measured by ELISA from co-culture supernatant. To evaluate the contact-dependence of monocyte activation by NB, monocytes were cultured in ULA plates with seven-day NB conditioned medium mixed 1:1 with complete monocyte medium for 24 hours and analyzed for IL-6 production. To assess the growth advantage of NB cultured with monocytes, NB-luc cell lines and monocytes were seeded in tissue culture-treated white 96-well plates (1:1 ratio) and cultured for four days. Luminescence was measured using a TECAN Spark plate reader (TECAN). To evaluate changes in proliferation, NB was pulsed for 10 minutes in CellTrace Violet (2 μM, Invitrogen) and seeded at 100,000 cells per well in a 12-well tissue culture-treated plate. Monocytes were added directly to the NB monolayer at a density of 100,000 per well and incubated for four days. CellTrace Violet expression was analyzed by flow cytometry.
Cytokines released by monocytes were detected within co-culture supernatants using the Human TNF-alpha Quantikine ELISA Kit (TNFα, R&D Systems) and the Human IL-6 Quantikine ELISA Kit (IL-6, R&D Systems) according to manufacturer's guidelines. ELISA plates were read using a TECAN Spark plate reader (TECAN). Global cytokine regulation was evaluated using a custom Luminex panel containing the following cytokines: CX3CL1, CXCL10, EGF, FGF-2, Flt3L, G-CSF, GM-CSF, IL-1α, IL-1β, IL-1Ra, IL-4, IL-6, IL-8, IL-10, IL-12 (p40), IL-12 (p′70), M-CSF, MCP-1, MCP-3, MDC, MIP-1α, MIP-1β, TGFα, TNFα, TNFβ, and VEGF-A (Human Cytokine Panel A, Millipore-Sigma).

SK-N-AS and monocytes = assay: Tumorsphere cluster formation in low attachment plates; format: cell-based, human; details: 10 μg/mL etanercept, 24 hours, ultra low attachment plates
[1] = tested on: CHLA-255-luc/monocyte xenografts; assay: CHLA-255-luc/monocyte subcutaneous xenograft in NSG mice; format: in vivo, mouse
Source text: (FIG. 16A) In vivo subcutaneous xenograft model. CHLA-255-luc and freshly isolated human monocytes were embedded in Matrigel and injected into the subcutaneous right flank of eight-week female NSG mice. […] (FIG. 16B) Luminescence readings for each mouse (n=10/group) measured in radiance (photons/second/cm2/steradian). (FIG. 16C) Graphical representation of total luminescence per tumor from (FIG. 16B) over time. (FIG. 16D) Mean tumor luminescence over time, two-way ANOVA with Bonferroni multiple comparisons test (n=10 per group). The top line is NB/Mon+Ctrl. (FIG. 16E) Representative tumors for each group following sacrifice at day 21. ** p<0.01;
Six-week old female NOD/SCID/IL-2Ry-null (NSG) mice were purchased from The Jackson Laboratory and maintained at the Baylor College of Medicine (BCM) animal care facility. At eight-weeks of age, mice were injected in the subcutaneous right flank with either 1×106 CHLA-255-luc (or SK-N-AS-luc) or a combination of 1×106 CHLA-255-luc and 1×10^6 human monocytes (or SK-N-AS-luc/monocyte) embedded in growth factor-reduced Matrigel (Corning) as previously described (54). […] Tumor growth was measured indirectly by weekly bioluminescent imaging (Small Animal Imaging Core Facility, Texas Children's Hospital). After three weeks, mice were euthanized and tumors were saved for IHC (see Tumor IHC) and RNA-seq (see RNA Analysis).

[2] = tested on: NF-κB signaling in monocytes; assay: Intracellular IκBα in monocyte population of co-culture (PhosFlow flow cytometry); format: cell-based, human; details: 10 μg/mL etanercept
Description: as §1
To evaluate the expression of TNFα in NB and monocytes, cells were first stimulated with LPS (50 ng/mL) in the presence of GolgiStop (BD Biosciences) and fixed using CytoFix/Cytoperm buffer (BD Biosciences). Cells were then stained with TNFα-PE (BD Biosciences). To evaluate the expression of TNFR1 and TNFR2 on NB and monocytes, cells were stained with TNFR1-BV421 and TNFR2-APC (BD Biosciences) in FACS staining buffer containing 0.05% sodium azide to prevent receptor/antibody processing. To estimate changes in NF-kB expression, treated co-cultures were first stained with ZombieViolet (1 μL/test, Biolegend) to counterstain dead cells and APC-H7 CD45 and/or FITC-CD14 to label monocytes for 20 minutes at room temperature. […] All flow samples were run using an LSRII 5-laser flow cytometer (Texas Children's Hospital Cancer Center Flow Cytometry Core, Houston, Tex.) and analyzed using FlowJo Software (Treestar).

For etanercept, the sTNFα production (sTNFα production; CHLA-255 + monocytes, 10 μg/mL etanercept, vs IgG control (FIG. 15A)) was “almost entirely blocked”, the “TNFα level in co-culture supernatant” value (sTNFα production; SK-N-AS + monocytes, vs IgG control) was “decrease” and the “association of NB/monocytes into tumorsphere clusters” value (SK-N-AS and monocytes) was “blocking the ability of NB/monocytes to associate into tumorsphere clusters”. The “reduction of tumor growth (luminescence)” value ([1]; 5 mg/kg (100 μg) i.p. bi-weekly, vs IgG control) was 65%, the “macroscopic blood vessel development of treated tumors” value ([1]; etanercept bi-weekly, vs control tumors) was “appeared to lack blood vessel development” and the “reversal of IκBα degradation in monocytes” value ([2]; CHLA-255 + monocytes, 24 hours (FIG. 15C)) was “complete”. For the same substance, the “IκBα levels in monocytes” value ([2]; SK-N-AS + monocytes, 24 hours) was “increasing monocyte levels of IκBα”.
